# Laboratory results as given in US20220009914A1, “Analogs of Nitrofuran Antibiotics to Combat Resistance” (The Trustees of Indiana University, priority 2020, published 2022).
# Read-outs that look alike come from different tables or passages of the source.
# Experiments:
# native MDH = target: T1, native MDH (Sus scrofa, UniProt P00346); experiment: native MDH enzymatic activity counter-screen; assay type: biochemical, pig
# T1 sequence (P00346 25-338): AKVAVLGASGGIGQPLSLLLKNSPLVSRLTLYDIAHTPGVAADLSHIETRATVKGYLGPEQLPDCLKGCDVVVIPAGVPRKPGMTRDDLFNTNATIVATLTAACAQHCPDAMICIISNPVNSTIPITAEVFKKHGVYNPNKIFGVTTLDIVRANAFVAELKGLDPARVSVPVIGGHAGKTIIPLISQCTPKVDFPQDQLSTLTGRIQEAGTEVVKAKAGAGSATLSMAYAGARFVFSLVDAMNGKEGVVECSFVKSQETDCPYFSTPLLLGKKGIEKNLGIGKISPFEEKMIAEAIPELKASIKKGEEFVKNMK
# Description: Reagent Preparations & Assay Protocol: This assay was performed as described above for the GroEL/ES-dMDH refolding assay; however, the assay protocol differed in the sequence of compound addition to the assay plates. The refolding reactions were allowed to proceed for 45 min at 37° C. in the absence of test compounds (complete refolding of MDH occurs), then quenched with the EDTA stock. Compounds were then pin-transferred into the plates after the EDTA quenching step; thus, compound effects are only possible by inhibiting the fully-refolded MDH reporter substrate. […] A340 nm measurements were recorded at 0.5 minutes (start point) and at successive time points until the amount of NADH consumed reached ˜90% (end point, generally between 20-35 minutes). Compounds were tested in 8-point, 3-fold dilution series (62.5 μM to 29 nM during the reporter reaction) in clear, flat-bottom 384-well microtiter plates. IC50 values for the MDH reporter enzyme were determined as described above. Results presented represent the averages of IC50 values obtained from at least five replicates.
# Evaluating analogs for inhibiting GroEL/ES-mediated substrate refolding functions. […] We first evaluated all test compounds in our standard GroEL/ES-mediated refolding assays that employ either malate dehydrogenase (MDH) or rhodanese (Rho) as the denatured substrate reporter enzymes. When denatured, these enzymes are efficiently folded by GroEL/ES in the absence of inhibitors, and thus act as reporters to determine the degree of inhibition against the bacterial chaperonin system. Inhibition was examined in the presence of these two orthogonal substrates in order to support that GroEL/ES inhibitors were on-target. To further support on-target effects against GroEL/ES, we counter-screened for inhibition of the native MDH and Rho enzymatic reporter reactions, where test compounds were added after the denatured MDH and Rho substrate enzymes were completely refolded by GroEL/ES.
# E. coli GroEL/ES = target: T2, E. coli GroEL/ES (Escherichia coli, UniProt P0A6F5); experiment: GroEL/ES-mediated dMDH refolding assay in the presence of E. coli NfsB nitroreductase; assay type: biochemical
# T2 construct: made in house; host or cells: GroEL in NEB 5-alpha E. coli; GroES in E. coli BL21 (DE3)
# Description: Evaluating compounds for inhibition in the GroEL/ES-mediated dMDH refolding assay and native MDH activity counter-screen in the presence of E. coli NfsB nitroreductase. These assays were performed nearly identically to those mentioned above, but with a couple distinct modifications. For both assays, 10 μg/mL of the E. coli NfsB nitroreductase enzyme (Sigma product #N9284) was added to the initial GroEL/ES-dMDH solution. For the GroEL/ES-dMDH refolding assay, after stamping with compounds, 10 μL of a 2.4 mM NADH solution was added, followed by a 10 minute incubation period at 37° C. to bioactivate the nitrofuran analogs. The remainder of the assay was conducted as in our standard protocol where no NfsB nitroreductase was present. […] For the native MDH activity counter-screen in the presence of E. coli NfsB nitroreductase, the assay was performed as described above for the GroEL/ES-dMDH refolding assay with NfsB; however, compound addition to the assay plates was conducted after the EDTA quench step, followed by a 10 minute incubation period at 37° C. to bioactivate the nitrofuran analogs. […] Results presented represent the averages of IC50 values obtained from at least four replicates in each assay.
# Evaluating analogs for inhibiting GroEL/ES-mediated substrate refolding functions in the presence of the E. coli NfsB type-1 nitroreductase. […] However, our standard GroEL/ES-mediated refolding assays and native substrate reporter counter-screens were conducted without nitroreductases present.
# [1] = without NfsB nitroreductase, compounds added after refolding, read-out: Native MDH Activity IC50
# T2 sequence (P0A6F5 2-548): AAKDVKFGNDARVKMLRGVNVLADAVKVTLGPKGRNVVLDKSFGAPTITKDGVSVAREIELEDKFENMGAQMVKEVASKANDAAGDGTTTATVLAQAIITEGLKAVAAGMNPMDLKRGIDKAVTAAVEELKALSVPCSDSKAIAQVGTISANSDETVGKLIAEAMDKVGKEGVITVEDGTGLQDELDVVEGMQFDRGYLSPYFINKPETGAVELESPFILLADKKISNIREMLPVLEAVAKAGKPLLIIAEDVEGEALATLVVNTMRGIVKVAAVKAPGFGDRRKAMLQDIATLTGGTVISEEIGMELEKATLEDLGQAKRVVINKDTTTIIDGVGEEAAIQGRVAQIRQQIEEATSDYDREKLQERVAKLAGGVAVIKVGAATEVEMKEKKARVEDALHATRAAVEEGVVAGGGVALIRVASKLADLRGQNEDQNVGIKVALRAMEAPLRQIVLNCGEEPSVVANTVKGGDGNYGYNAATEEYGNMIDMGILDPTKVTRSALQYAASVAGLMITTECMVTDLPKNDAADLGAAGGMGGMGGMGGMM
Compound,IC50 (native MDH) [µM],IC50 (E. coli GroEL/ES) [µM],IC50 (native MDH; [1]) [µM]
"O=C(N/N=C/c1ccc([N+](=O)[O-])o1)c1ccc(NS(=O)(=O)c2ccc(Br)cc2)cc1 [Compound 27, 4-bromo-N-(4-(2-((5-nitrofuran-2-yl)methylene)hydrazine-1-carbonyl)phenyl)benzenesulfonamide]",> 63,2,–
"O=C(N/N=C/c1cccc2ncccc12)c1ccccc1 [Compound 32, N′-(quinolin-5-ylmethylene)benzohydrazide]",–,> 83,> 63
"COc1ccc(C(=O)N/N=C/c2cccc3ccccc23)cc1 [Compound 33, 4-methoxy-N′-(naphthalen-1-ylmethylene)benzohydrazide]",–,> 83,> 63
"O=C(N/N=C/c1ccc(O)c2ncccc12)c1cccs1 [Compound 3, N′-((8-hydroxyquinolin-5-yl)methylene)thiophene-2-carbohydrazide]",–,29,> 63
"O=C(N/N=C/c1ccc(O)c2ncccc12)c1ccncc1 [Compound 6, N′-((8-hydroxyquinolin-5-yl)methylene)isonicotinohydrazide]",–,> 83,> 63
"CN(C)c1ccc(C(=O)N/N=C/c2ccc(O)c3ncccc23)cc1 [Compound 8, 4-(dimethylamino)-N′-((8-hydroxyquinolin-5-yl)methylene)benzohydrazide]",–,25,> 63
"CCOc1ccc(S(=O)(=O)Nc2ccc(C(=O)N/N=C/c3ccc([N+](=O)[O-])o3)cc2)cc1 [Compound 28, 4-ethoxy-N-(4-(2-((5-nitrofuran-2-yl)methylene)hydrazine-1-carbonyl)phenyl)benzenesulfonamide]",–,39,> 63
"O=Cc1ccc([N+](=O)[O-])o1 [Compound 41, reference compound]",–,> 83,> 63
"O=C(N/N=C/c1ccc(O)c2ncccc12)c1cccc(Oc2ccccc2)c1 [Compound 11, N′-((8-hydroxyquinolin-5-yl)methylene)-3-phenoxybenzohydrazide]",–,21,> 63
"COc1ccc(C(=O)N/N=C/c2ccccc2)cc1 [Compound 37, N′-benzylidene-4-methoxybenzohydrazide]",–,> 83,> 63
"O=[N+]([O-])c1ccc(O)c2ncccc12 [Nitroxoline, reference compound]",–,27,> 63
"COc1ccc(C(=O)N/N=C/c2ccc(O)cc2)cc1 [Compound 35, N′-(4-hydroxybenzylidene)-4-methoxybenzohydrazide]",–,> 83,> 63
"O=C1CN(/N=C/c2ccc(O)c3ncccc23)C(=O)N1 [Compound 2, 1-(((8-hydroxyquinolin-5-yl)methylene)amino)imidazolidine-2,4-dione]",–,> 83,> 63
